This note sets out measurements from patent US11780845B2 (Relay Therapeutics, Inc., priority 2019, dated 2023).

The structures appear in SMILES notation. pIC50: −log10 of the molar value.

One assay concerns SNU16 cells. In words: SNU16 Cancer Cell Line Proliferation Assay. The class given is cell-based. To be noted: Homo sapiens; SNU-16 cells. The procedure, abridged:
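SNU16 cells were seeded, held 24 h at 37 degrees, then dosed with an 11-point 3-fold dilution series prepared from a 10 mM DMSO stock. After 96 h incubation, viability was read by CellTiter Glo luminescence.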

The next assay concerns the target FGFR2 (Homo sapiens (Human), UniProt P21802). In words: FGFR2 Biochemical Caliper Assay. The method, then: Compounds of the present invention were also tested in a FGFR2 Biochemical Caliper Assay. Compounds were prepared in 10 mM DMSO solution and serially diluted into 11 concentrations by 3-fold dilution. […] 5 uL of ATP solution (100 uM) was added to start the reaction and the plate was incubated for 90 minutes, then 70 uL of stopping buffer (0.5M EDTA) was added to terminate the reaction. Each well was analyzed using EZ reader.

For orientation: pIC50 means the negative decadic logarithm of the IC50, by convention in mol/L. Lower therefore signals a high IC50.

Chain of FGFR2 (P21802 22-821): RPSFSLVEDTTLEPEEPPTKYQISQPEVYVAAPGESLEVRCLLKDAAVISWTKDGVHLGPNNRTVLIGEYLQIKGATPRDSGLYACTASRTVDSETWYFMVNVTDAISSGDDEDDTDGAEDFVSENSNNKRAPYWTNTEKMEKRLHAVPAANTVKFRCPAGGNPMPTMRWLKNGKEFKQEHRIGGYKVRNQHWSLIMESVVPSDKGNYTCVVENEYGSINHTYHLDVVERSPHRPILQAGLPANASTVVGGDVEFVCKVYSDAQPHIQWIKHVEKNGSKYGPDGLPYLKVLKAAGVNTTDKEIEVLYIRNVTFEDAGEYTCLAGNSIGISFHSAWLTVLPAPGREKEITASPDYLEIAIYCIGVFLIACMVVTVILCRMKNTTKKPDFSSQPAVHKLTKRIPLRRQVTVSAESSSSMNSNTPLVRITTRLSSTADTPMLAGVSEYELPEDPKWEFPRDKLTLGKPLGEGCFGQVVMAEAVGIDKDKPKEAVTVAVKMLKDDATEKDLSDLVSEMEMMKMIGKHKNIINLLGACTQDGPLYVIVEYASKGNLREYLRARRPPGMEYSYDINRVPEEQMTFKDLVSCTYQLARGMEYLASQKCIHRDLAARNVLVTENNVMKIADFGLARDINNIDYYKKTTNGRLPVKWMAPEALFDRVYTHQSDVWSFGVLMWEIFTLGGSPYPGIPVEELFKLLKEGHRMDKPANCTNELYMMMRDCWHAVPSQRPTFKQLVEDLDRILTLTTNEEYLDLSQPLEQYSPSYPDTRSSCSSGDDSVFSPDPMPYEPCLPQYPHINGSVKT

Consider `C=C(C)C(=O)Nc1ccc(-c2c(-c3ccc(C(=O)NCc4ncon4)cc3)c3c(N)ncnc3n2C)cc1` [Example 282], for which the values for the negative-log IC50 (pIC50) with SNU16 cells and on FGFR2 were 6.00 to 6.60 and 6.60 to 7.00, respectively.
In the case of `C=CC(=O)N1CCC(c2c(-c3ccc(Oc4ncccn4)cc3)c3c(N)ncnc3n2CC)C1` (centres unmarked) [Example 705], the pIC50 with SNU16 cells is ≥ 7.00; against FGFR2, 6.60 to 7.00.
With `C=CC(=O)N1CCC(n2cc(-c3c(-c4ccc(Oc5cccc(OC)n5)cc4)c4c(N)ncnc4n3C)cn2)CC1` [Example 650], the pIC50 in the assay with SNU16 cells was ≥ 7.00; against FGFR2 it was > 7.00.
As to `C=CC(=O)N1CCC(c2c(-c3ccc(NC4CCOCC4)cc3)c3c(N)ncnc3n2C)C1` (centres unmarked) [Example 773], the pIC50 with SNU16 cells and against FGFR2 was 4.00 to 6.00 in each case.
Regarding `C=C(C)C(=O)Nc1ccc(-c2cn3ncnc(N)c3c2-c2ccc(Oc3cccc(C)n3)cc2)cc1` [Example 795], the pIC50 in the assay on SNU16 cells and against FGFR2 was 4.00 to 6.00 in each case.
Consider `C=C(C)C(=O)Nc1ccc(-c2c(-c3ccc(C(=O)N4CC5CCCCC5C4)cc3)c3c(N)ncnc3n2C)cc1` (centres unmarked) [Example 246], for which the pIC50 with SNU16 cells was 6.60 to 7.00; against FGFR2, 6.00 to 6.60.
On the same counts, the results for `C=C(C)C(=O)Nc1ccc(-c2c(-c3ccc(C(=O)NC4CCCOC4)cc3)c3c(N)ncnc3n2C)cc1` (centres unmarked) [Example 327] are 6.60 to 7.00 and > 7.00.
`C=C(C)C(=O)Nc1ccc(-c2c(-c3ccc(S(=O)(=O)NC4COC4)cc3)c3c(N)ncnc3n2C)cc1` [Example 301]: the negative-log IC50 (pIC50) in the assay on SNU16 cells was 6.00 to 6.60; at FGFR2 it was 4.00 to 6.00.
Turning to `C/C=C/C(=O)Nc1ccc(-c2c(-c3ccc(Oc4cccc(C)n4)c(OC)c3)c3c(N)ncnc3n2C)cc1` [Example 31], the figures for the pIC50 in the assay with SNU16 cells and at FGFR2 were ≥ 7.00 and > 7.00, respectively.
Consider `CCC(=O)N1CCC(n2cc(-c3c(-c4ccc(Oc5ccccc5)cc4)c4c(N)ncnc4n3C)cn2)CC1` [Example 617], for which the values for the negative-log IC50 (pIC50) with SNU16 cells and at FGFR2 were 6.00 to 6.60 and 6.60 to 7.00, respectively.
Turning to `C=C(C)C(=O)Nc1ccc(-c2c(-c3ccc(C(=O)N[C@@H](CO)CC4CC4)cc3)c3c(N)ncnc3n2C)cc1` [Example 329], the pIC50 in the assay on SNU16 cells is 6.00 to 6.60; at FGFR2 it was > 7.00.
As to `C=C(C)C(=O)Nc1ccc(-c2c(-c3ccc(C(=O)N4CCCC4)cc3)c3c(N)ncnc3n2C)c(C#N)c1` [Example 435], the figures for the pIC50 in the assay with SNU16 cells and against FGFR2 were 6.60 to 7.00 and > 7.00, respectively.
For the compound `C=CC(=O)N1CC[C@@H](c2[nH]c3ncnc(N)c3c2-c2ccc(Oc3cccc(C)n3)cc2)C1` (single isomer, unassigned) [Example 752], the pIC50 in the assay with SNU16 cells was ≥ 7.00; at FGFR2, > 7.00.
Regarding `C=C(C)C(=O)Nc1ccc(-c2c(-c3ccc(C(=O)NCC(F)(F)F)cc3)c3c(N)ncnc3n2C)cc1` [Example 248], the pIC50 in the assay with SNU16 cells was ≥ 7.00; on FGFR2, > 7.00.
`C=C(C)C(=O)Nc1ccc(-c2c(C3=CC[C@@H](C(=O)N4CC5CCC(C5)C4)CC3)c3c(N)ncnc3n2C)cc1` [Example 419]: the pIC50 is ≥ 7.00 with SNU16 cells and > 7.00 at FGFR2.
Regarding `C=C(C)C(=O)Nc1ccc(-c2c(-c3ccc(C(=O)N4CCCC5(CC5)C4)cc3)c3c(N)ncnc3n2C)cc1` [Example 264], the pIC50 is ≥ 7.00 in the assay with SNU16 cells and 6.60 to 7.00 on FGFR2.
For `C=CC(=O)Nc1ccc(-c2c(-c3ccc(Oc4ncc(F)cn4)c(OC)c3)c3c(N)ncnc3n2C)cc1` [Example 101], the pIC50 was ≥ 7.00 with SNU16 cells and > 7.00 against FGFR2.
As for `Cn1c(-c2ccc(NC(=O)CCl)cc2)c(-c2ccc(C(=O)N3CCCC3)cc2)c2c(N)ncnc21` [Example 558], the results for the negative logarithm of the IC50 (pIC50) in the assay with SNU16 cells and against FGFR2 were ≥ 7.00 and > 7.00, respectively.
On the same counts, the results for `C=C(C)C(=O)Nc1ccc(-c2c(C3CCN(C(=O)N4CCCC4)CC3)c3c(N)ncnc3n2C)cc1` [Example 197] are 6.00 to 6.60 and 4.00 to 6.00.
As to `C=C(C)C(=O)Nc1ccc(-c2c(-c3ccc(C(=O)NCC4CCO4)cc3)c3c(N)ncnc3n2C)cc1` (centres unmarked) [Example 348], the pIC50 in the assay with SNU16 cells was 6.00 to 6.60; at FGFR2, > 7.00.
As for `C=CC(=O)N1CCC(c2c(-c3ccc(OCc4ccccc4)cc3)c3c(N)ncnc3n2C)C1` (centres unmarked) [Example 748], the pIC50 in the assay on SNU16 cells was 6.00 to 6.60; on FGFR2, 6.60 to 7.00.
With `C=C(C)C(=O)Nc1ccc(-c2c(-c3ccc(C(=O)N4CC5COCC5C4)cc3)c3c(N)ncnc3n2C)cc1` (centres unmarked) [Example 249], the pIC50 in the assay with SNU16 cells and at FGFR2 was 6.00 to 6.60 throughout.
Take `C=C(C)C(=O)Nc1ccc(-c2c(-c3ccc(OC4CCCC4)cc3)c3c(N)ncnc3n2C)cc1` [Example 223]: the figures for the pIC50 with SNU16 cells and against FGFR2 were ≥ 7.00 and > 7.00, respectively.
Take `C=C(C)C(=O)Nc1ccc(-c2c(-c3ccc(C(=O)N4CCCCC4=O)cc3)c3c(N)ncnc3n2C)cc1` [Example 236]: the pIC50 in the assay on SNU16 cells and against FGFR2 was 6.60 to 7.00 throughout.
With `C=C(C)C(=O)Nc1ccc(-c2c(-c3c(F)cc(Oc4nccc(C)n4)cc3F)c3c(N)ncnc3n2C)cc1` [Example 570], the pIC50 with SNU16 cells was ≥ 7.00; on FGFR2 it was > 7.00.
Consider `C=C(C)C(=O)Nc1ccc(-c2c(-c3ccc(Cn4cc(C)cn4)cc3)c3c(N)ncnc3n2C)cc1` [Example 263], for which the pIC50 in the assay on SNU16 cells was 6.00 to 6.60; against FGFR2 it was 4.00 to 6.00.
Take `C=CC(=O)N1CC[C@H](c2c(-c3ccc(Oc4ncccn4)cc3)c3c(N)ncnc3n2CC)C1` (single isomer, unassigned) [Example 710]: the pIC50 with SNU16 cells is 6.60 to 7.00; against FGFR2 it was 6.00 to 6.60.
For the compound `C=CC(=O)NC1CCC(c2c(-c3ccc(Oc4cccc(C)n4)cc3)c3c(N)ncnc3n2C)CC1` (centres unmarked) [Example 662], the pIC50 was 6.00 to 6.60 in the assay with SNU16 cells and 6.60 to 7.00 on FGFR2.
Consider `C=C(C)C(=O)Nc1ccc(-c2c(-c3ccc(C(=O)N(C)CC4(C#N)CC4)cc3)c3c(N)ncnc3n2C)c(F)c1` [Example 465], for which the pIC50 with SNU16 cells was ≥ 7.00; on FGFR2, > 7.00.
`CC#CC(=O)N1CCC(c2c(-c3ccc(Oc4cccc(C)n4)cc3)c3c(N)ncnc3n2C)CC1` [Example 695]: the pIC50 with SNU16 cells is ≥ 7.00; at FGFR2, 6.60 to 7.00.
As to `C=C(C)C(=O)Nc1ccc(-c2c(-c3ccc(C(=O)N4CCCC4)cc3)c3c(N)ncnc3n2C)c(C2CC2)c1` [Example 520], the negative-log IC50 (pIC50) in the assay with SNU16 cells and on FGFR2 was 6.60 to 7.00 in each case.
Turning to `C=CC(=O)N1CCC(c2c(-c3ccc(C(=O)c4ccccc4)cc3)c3c(N)ncnc3n2C)C1` (centres unmarked) [Example 760], the pIC50 was ≥ 7.00 with SNU16 cells and > 7.00 on FGFR2.
As for `C=C(C)C(=O)Nc1ccc(-c2c(-c3ccc(C(=O)NCC4CCC4)c(F)c3)c3c(N)ncnc3n2C)cc1` [Example 413], the pIC50 in the assay on SNU16 cells was ≥ 7.00; against FGFR2 it was > 7.00.
Consider `C=C(C)C(=O)Nc1ccc(-c2c(-c3ccc(C(=O)N4CC[C@H]5C[C@H]54)cc3)c3c(N)ncnc3n2C)c(F)c1` (single isomer, unassigned) [Example 466], for which the pIC50 is ≥ 7.00 with SNU16 cells and > 7.00 against FGFR2.
Regarding `C=CC(=O)N1CCC(c2c(-c3ccc(OCC4CC4)cc3)c3c(N)ncnc3n2C)C1` (centres unmarked) [Example 734], the pIC50 with SNU16 cells is ≥ 7.00; at FGFR2, 6.60 to 7.00.
`C=C(C)C(=O)Nc1ccc(-c2c(-c3ccc(Oc4cccc(CO)n4)cc3)c3c(N)ncnc3n2C)cc1` [Example 418]: the pIC50 in the assay on SNU16 cells was ≥ 7.00; at FGFR2, > 7.00.
As to `C=CC(=O)N1CCC(c2c(-c3ccc(CN4CCCS4(=O)=O)cc3)c3c(N)ncnc3n2C)C1` (centres unmarked) [Example 797], the negative logarithm of the IC50 (pIC50) in the assay on SNU16 cells and at FGFR2 was 6.00 to 6.60 each time.
Take `C=CC(=O)N1CCC(c2c(-c3cnn(CC4CCNCC4)c3)c3c(N)ncnc3n2C)C1` (centres unmarked) [Example 732]: the values for the pIC50 in the assay with SNU16 cells and at FGFR2 were 4.00 to 6.00 and 6.60 to 7.00, respectively.
Regarding `C=C(C)C(=O)Nc1ccc(-c2c(-c3ccc(C(=O)N(C)CC(F)(F)F)cc3)c3c(N)ncnc3n2C)cc1` [Example 304], the pIC50 was ≥ 7.00 in the assay with SNU16 cells and > 7.00 against FGFR2.
As for `C=CC(=O)Nc1ccc(-c2c(-c3ccc(Cn4nc(C)cc4C)cc3)c3c(N)ncnc3n2C)cc1` [Example 260], the pIC50 with SNU16 cells was ≥ 7.00; against FGFR2 it was > 7.00.
The like results for `C=C(C)C(=O)Nc1ccc(-c2c(-c3ccc(C(=O)N4CC5CC4C5)cc3)c3c(N)ncnc3n2C)c(F)c1` [Example 463] were, in that order, ≥ 7.00 and > 7.00.
On to `C=CC(=O)N1CCC(c2c(-c3ccc(C(=O)Nc4ccccn4)cc3)c3c(N)ncnc3n2C)C1` (centres unmarked) [Example 725], for which the pIC50 in the assay with SNU16 cells is 6.60 to 7.00; on FGFR2 it was > 7.00.
With `C=CC(=O)N1CCC(c2c(-c3ccc(OC)cc3)c3c(N)ncnc3n2C)C1` (centres unmarked) [Example 702], the pIC50 with SNU16 cells was 6.60 to 7.00; at FGFR2, 6.00 to 6.60.
On the same counts, the results for `C=C(C)C(=O)Nc1ccc(-c2c(-c3ccc(Oc4ncc(F)cn4)c(C)c3)c3c(N)ncnc3n2C)c(F)c1` [Example 424] are ≥ 7.00 and > 7.00.
In the case of `C=C(C)C(=O)Nc1ccc(-c2c(-c3ccc(C(=O)N4CCCC4)cc3)c3c(N)ncnc3n2C)c(OC)c1` [Example 433], the pIC50 with SNU16 cells is ≥ 7.00; on FGFR2, > 7.00.
As to `C=C(C)C(=O)Nc1ccc(-c2c(-c3ccc(Oc4cnn(C)c4)cc3)c3c(N)ncnc3n2C)cc1` [Example 541], the results for the pIC50 in the assay with SNU16 cells and at FGFR2 were 6.00 to 6.60 and 4.00 to 6.00, respectively.
The like results for `C=C(C)C(=O)Nc1ccc(-c2c(-c3ccc(C(=O)NC4CC(F)C4)c(OC)c3)c3c(N)ncnc3n2C)cc1` (centres unmarked) [Example 566] were, in that order, ≥ 7.00 and > 7.00.
Take `C=C(C)C(=O)Nc1ccc(-c2c(-c3ccc(C(=O)N4CC5(CCCC5)C4)cc3)c3c(N)ncnc3n2C)cc1` [Example 241]: the figures for the pIC50 with SNU16 cells and on FGFR2 were 6.00 to 6.60 and 4.00 to 6.00, respectively.
`C=CC(=O)N1CCC(c2c(-c3ccc(OC4CNC4)cc3)c3c(N)ncnc3n2C)C1` (centres unmarked) [Example 782]: the pIC50 with SNU16 cells and against FGFR2 was 4.00 to 6.00 throughout.
